From ChEMBL document CHEMBL5346923, “Novel pyridinium cationic pleuromutilin analogues overcoming bacterial multidrug resistance” (Eur J Med Chem, 2023)

Tests used:
Staphylococcus aureus [1] = assay: Antibacterial activity against methicillin-resistant Staphylococcus aureus infected in rabbit RBC assessed as reduction in alpha-heamolysin by absorbance based analysis; assay type: functional, organism-based; details: Erythrocyte
Staphylococcus aureus [2] = assay: Antibacterial activity against methicillin-resistant Staphylococcus aureus infected in rabbit RBC assessed as reduction in alpha-heamolysin at 0.25 times of MIC by absorbance based analysis; assay type: functional, Erythrocyte; set-up: scale not given: the % may be the effect or the level left
Staphylococcus aureus [3] = assay: Antibacterial activity against methicillin-resistant Staphylococcus aureus infected in rabbit RBC assessed as reduction in alpha-heamolysin at 0.5 times of MIC by absorbance based analysis; assay type: functional, Erythrocyte; set-up: scale not given: the % may be the effect or the level left
Staphylococcus aureus [4] = assay: Antibacterial activity against methicillin-resistant Staphylococcus aureus infected in rabbit RBC assessed as reduction in alpha-heamolysin at 1 times of MIC by absorbance based analysis; assay type: functional, Erythrocyte; set-up: scale not given: the % may be the effect or the level left

C=C[C@]1(C)C[C@@H](OC(=O)CSc2cc[n+](CCCCCCC)cc2)[C@]2(C)[C@H](C)CC[C@]3(CCC(=O)[C@H]32)[C@@H](C)[C@@H]1O.[I-]
Activity (Staphylococcus aureus [1]): Dose-Dependent Effect | Activity (Staphylococcus aureus [2]): 25% | Activity (Staphylococcus aureus [3]): 34% | Activity (Staphylococcus aureus [4]): 93%
